ChEMBL document CHEMBL1201862, “PubChem BioAssay data set” (2004)
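96-well plates; 48 h exposure; 5 concentrations. Endpoints by linear interpolation between flanking doses. Not reached: highest tested concentration assigned. GI50: concentration for 50% inhibition of growth.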 Active and inactive are the calls of the source. No stated cut-off is given here; in the data, active = GI50 up to about 1.1 µM and inactive = higher.

Assays:
Assay in all cases: NCI-60 cell line screen, 48 h
[1] = system: NCI-H226
[2] = system: SF-268
[3] = system: OVCAR-5
[4] = system: NCI-H23
[5] = system: NCI/ADR-RES
[6] = system: OVCAR-4
[7] = system: SK-MEL-2
[8] = system: EKVX
[9] = system: M14
[10] = system: U-251
[11] = system: IGROV-1
[12] = system: OVCAR-3
[13] = system: SR
[14] = system: SF-295
[15] = system: NCI-H522
[16] = system: MDA-MB-231
[17] = system: Malme-3M
[18] = system: RXF 393
[19] = system: SK-MEL-5
[20] = system: HOP-62
[21] = system: HCT-116
[22] = system: DU-145
[23] = system: SF-539
[24] = system: CCRF-CEM
[25] = system: 786-0
[26] = system: SN12C
[27] = system: T47D
[28] = system: UACC-62
[29] = system: A549
[30] = system: MOLT-4
[31] = system: MCF7
[32] = system: CAKI-1
[33] = system: BT-549
[34] = system: MDA-N
[35] = system: OVCAR-8
[36] = system: K562
[37] = system: Hs-578T
[38] = system: TK-10
[39] = system: A498
[40] = system: HT-29
[41] = system: UACC-257
[42] = system: COLO 205
[43] = system: HCC 2998
[44] = system: SK-OV-3
[45] = system: PC-3
[46] = system: MDA-MB-435
[47] = system: SW-620
[48] = system: HCT-15
[49] = system: HOP-92
[50] = system: SNB-19
[51] = system: SK-MEL-28
[52] = system: ACHN
[53] = system: KM12
[54] = system: LOX IMVI
[55] = system: RPMI-8226
[56] = system: SNB-75
[57] = system: UO-31
[58] = system: NCI-H460
[59] = system: HL-60

With `CC1(C)Oc2ccc3c(=O)c4ccccc4oc3c2C1C(=O)O` (configuration not stated) the GI50 [1] was > 100 µM (inactive), the GI50 [2] was > 100 µM (inactive) and the GI50 [3] was > 100 µM (inactive). For the same compound, the GI50 [4] was > 100 µM (inactive), the GI50 [5] was > 100 µM (inactive) and the GI50 [6] was > 100 µM (inactive). The GI50 [7] was > 100 µM (inactive), the GI50 [8] was > 100 µM (inactive) and the GI50 [9] was > 100 µM (inactive). For the same compound, the GI50 [10] was > 100 µM (inactive), the GI50 [11] was > 100 µM (inactive) and the GI50 [12] was > 100 µM (inactive). The GI50 [13] was > 10 µM (inactive), the GI50 [14] was > 100 µM (inactive) and the GI50 [15] was > 100 µM (inactive). For the same compound, the GI50 [16] was > 100 µM (inactive), the GI50 [17] was > 100 µM (inactive) and the GI50 [18] was > 100 µM (inactive). For the same compound, the GI50 [19] was > 100 µM (inactive), the GI50 [20] was > 100 µM (inactive) and the GI50 [21] was > 100 µM (inactive). The GI50 [22] was > 100 µM (inactive), the GI50 [23] was > 100 µM (inactive) and the GI50 [24] was > 100 µM (inactive). The GI50 [25] was > 100 µM (inactive), the GI50 [26] was > 100 µM (inactive) and the GI50 [27] was > 100 µM (inactive). The GI50 [28] was > 100 µM (inactive), the GI50 [29] was > 100 µM (inactive) and the GI50 [30] was > 100 µM (inactive). For the same compound, the GI50 [31] was > 100 µM (inactive), the GI50 [32] was > 100 µM (inactive) and the GI50 [33] was > 100 µM (inactive). For the same compound, the GI50 [34] was > 100 µM (inactive), the GI50 [35] was > 100 µM (inactive) and the GI50 [36] was > 100 µM (inactive). The GI50 [37] was > 100 µM (inactive), the GI50 [38] was > 100 µM (inactive) and the GI50 [39] was > 100 µM (inactive). For the same compound, the GI50 [40] was > 100 µM (inactive), the GI50 [41] was > 100 µM (inactive) and the GI50 [42] was > 100 µM (inactive). The GI50 [43] was > 100 µM (inactive), the GI50 [44] was > 100 µM (inactive) and the GI50 [45] was > 100 µM (inactive). For the same compound, the GI50 [46] was > 100 µM (inactive).

`Cc1cccc2nc3cc(O)cc(O)c3c(O)c12` was tested, and the GI50 [1] was > 10 µM (inactive), the GI50 [2] was > 10 µM (inactive) and the GI50 [3] was > 10 µM (inactive). For the same compound, the GI50 [4] was > 10 µM (inactive), the GI50 [47] was > 10 µM (inactive) and the GI50 [5] was > 10 µM (inactive). For the same compound, the GI50 [6] was > 10 µM (inactive), the GI50 [7] was > 10 µM (inactive) and the GI50 [9] was > 10 µM (inactive). The GI50 [48] was > 10 µM, the GI50 [10] was > 10 µM (inactive) and the GI50 [11] was > 10 µM (inactive). The GI50 [12] was > 10 µM (inactive), the GI50 [14] was > 10 µM (inactive) and the GI50 [15] was > 10 µM (inactive). The GI50 [16] was > 10 µM (inactive), the GI50 [17] was > 10 µM (inactive) and the GI50 [18] was > 10 µM (inactive). The GI50 [19] was > 10 µM (inactive), the GI50 [49] was > 10 µM (inactive) and the GI50 [50] was > 10 µM (inactive). For the same compound, the GI50 [20] was > 10 µM (inactive), the GI50 [21] was > 10 µM (inactive) and the GI50 [22] was > 10 µM (inactive). The GI50 [23] was > 10 µM (inactive), the GI50 [24] was > 10 µM (inactive) and the GI50 [51] was > 10 µM (inactive). The GI50 [52] was > 10 µM (inactive), the GI50 [25] was > 10 µM (inactive) and the GI50 [26] was > 10 µM (inactive). The GI50 [27] was > 10 µM (inactive), the GI50 [28] was 6.49 µM (inactive) and the GI50 [29] was > 10 µM (inactive). The GI50 [53] was > 10 µM (inactive), the GI50 [30] was > 10 µM (inactive) and the GI50 [32] was > 10 µM (inactive). For the same compound, the GI50 [33] was > 10 µM (inactive), the GI50 [34] was > 10 µM (inactive) and the GI50 [54] was > 10 µM (inactive). For the same compound, the GI50 [55] was > 10 µM (inactive), the GI50 [56] was 4.54 µM (inactive) and the GI50 [35] was > 10 µM (inactive). The GI50 [36] was > 10 µM (inactive), the GI50 [37] was 2.86 µM (inactive) and the GI50 [38] was > 10 µM (inactive). The GI50 [40] was > 10 µM (inactive), the GI50 [41] was > 10 µM (inactive) and the GI50 [57] was > 10 µM (inactive). The GI50 [58] was > 10 µM (inactive), the GI50 [42] was > 10 µM (inactive) and the GI50 [44] was > 10 µM (inactive). For the same compound, the GI50 [45] was > 10 µM (inactive) and the GI50 [46] was > 10 µM (inactive).

In the case of `CN(C)C(C1=C(O)C(c2ccccc2)N(c2ccccc2)C1=O)N1CCOCC1` (configuration not stated), the GI50 [1] is reported as > 10 µM (inactive), the GI50 [2] is reported as > 10 µM (inactive) and the GI50 [3] is reported as > 10 µM (inactive). The GI50 [4] was > 10 µM (inactive), the GI50 [47] was > 10 µM (inactive) and the GI50 [5] was > 10 µM (inactive). The GI50 [6] was > 10 µM (inactive), the GI50 [7] was > 10 µM (inactive) and the GI50 [8] was > 10 µM (inactive). For the same compound, the GI50 [9] was > 10 µM (inactive), the GI50 [48] was > 10 µM and the GI50 [10] was > 10 µM (inactive). The GI50 [11] was > 10 µM (inactive), the GI50 [12] was > 10 µM (inactive) and the GI50 [14] was > 10 µM (inactive). For the same compound, the GI50 [15] was > 10 µM (inactive), the GI50 [16] was > 10 µM (inactive) and the GI50 [17] was > 10 µM (inactive). For the same compound, the GI50 [18] was > 10 µM (inactive), the GI50 [19] was > 10 µM (inactive) and the GI50 [49] was > 10 µM (inactive). For the same compound, the GI50 [50] was > 10 µM (inactive), the GI50 [20] was > 10 µM (inactive) and the GI50 [21] was > 10 µM (inactive). For the same compound, the GI50 [22] was > 10 µM (inactive), the GI50 [23] was > 10 µM (inactive) and the GI50 [24] was > 10 µM (inactive). The GI50 [51] was > 10 µM (inactive), the GI50 [52] was > 10 µM (inactive) and the GI50 [25] was > 10 µM (inactive). For the same compound, the GI50 [26] was > 10 µM (inactive), the GI50 [27] was > 10 µM (inactive) and the GI50 [28] was > 10 µM (inactive). The GI50 [29] was > 10 µM (inactive), the GI50 [53] was > 10 µM (inactive) and the GI50 [30] was > 10 µM (inactive). For the same compound, the GI50 [31] was > 10 µM (inactive), the GI50 [32] was > 10 µM (inactive) and the GI50 [33] was > 10 µM (inactive). The GI50 [34] was > 10 µM (inactive), the GI50 [54] was > 10 µM (inactive) and the GI50 [55] was > 10 µM (inactive). For the same compound, the GI50 [56] was > 10 µM (inactive), the GI50 [35] was > 10 µM (inactive) and the GI50 [36] was > 10 µM (inactive). For the same compound, the GI50 [37] was > 10 µM (inactive), the GI50 [38] was > 10 µM (inactive) and the GI50 [39] was > 10 µM (inactive). The GI50 [40] was > 10 µM (inactive), the GI50 [41] was > 10 µM (inactive) and the GI50 [57] was > 10 µM (inactive). For the same compound, the GI50 [58] was > 10 µM (inactive), the GI50 [42] was > 10 µM (inactive) and the GI50 [43] was > 10 µM (inactive). For the same compound, the GI50 [59] was > 10 µM (inactive), the GI50 [44] was > 10 µM (inactive) and the GI50 [45] was > 10 µM (inactive). For the same compound, the GI50 [46] was > 10 µM (inactive).
